Reference: PubChem BioAssay AID1919005 (Molecular Pharmacology Branch, DTP, NCI, 2023)
Values joined by “and” are separate entries in the source; they are usually repeats but may differ in a detail not shown here. Equal entries are not always repeated.

Tested on: 855422-203-R-J1-PDC complex spheroid growth
Assay: Anticancer human tumor 855422-203-R-J1-PDC patient-derived bladder carcinoma cell line growth inhibition [AhR]
Details: for viability, T/C: stronger effect = lower value
Method in brief: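 Complex tumor spheroids co-cultured with HUVEC and human MSC stroma; AhR antagonists tested in combination with standard-of-care and investigational agents. Top concentration at or near clinical Cmax (else 10 microM), half-log dilutions; growth expressed as percent test/control.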

[1] = curve of first compound, second compound 0.1 µM
[2] = curve of first compound, second compound 0.316 µM
[3] = curve of first compound, second compound 1 µM
[4] = curve of first compound, second compound 3.16 µM
[5] = curve of first compound, second compound 10 µM
[6] = second compound 0.1 µM, first compound 0.0316 µM
[7] = second compound 0.1 µM, first compound 0.1 µM
[8] = second compound 0.1 µM, first compound 0.316 µM
[9] = second compound 0.1 µM, first compound 1 µM
[10] = second compound 0.1 µM, first compound 3.16 µM
[11] = second compound 0.1 µM, first compound 10 µM
[12] = second compound 0.316 µM, first compound 0.0316 µM
[13] = second compound 0.316 µM, first compound 0.1 µM
[14] = second compound 0.316 µM, first compound 0.316 µM
[15] = second compound 0.316 µM, first compound 1 µM
[16] = second compound 0.316 µM, first compound 3.16 µM
[17] = second compound 0.316 µM, first compound 10 µM
[18] = second compound 1 µM, first compound 0.0316 µM
[19] = second compound 1 µM, first compound 0.1 µM
[20] = second compound 1 µM, first compound 0.316 µM
[21] = second compound 1 µM, first compound 1 µM
[22] = second compound 1 µM, first compound 3.16 µM
[23] = second compound 1 µM, first compound 10 µM
[24] = second compound 3.16 µM, first compound 0.0316 µM
[25] = second compound 3.16 µM, first compound 0.1 µM
[26] = second compound 3.16 µM, first compound 0.316 µM
[27] = second compound 3.16 µM, first compound 1 µM
[28] = second compound 3.16 µM, first compound 3.16 µM
[29] = second compound 3.16 µM, first compound 10 µM
[30] = second compound 10 µM, first compound 0.0316 µM
[31] = second compound 10 µM, first compound 0.1 µM
[32] = second compound 10 µM, first compound 0.316 µM
[33] = second compound 10 µM, first compound 1 µM
[34] = second compound 10 µM, first compound 3.16 µM
[35] = second compound 10 µM, first compound 10 µM
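Note: spheroids exposed to agents for seven days before readout.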
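Throughout, for viability, T/C: percent of DMSO vehicle control luminescence viability.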

Compound	IC50 [1]	IC50 [2]	IC50 [3]	IC50 [4]	IC50 [5]	viability, T/C [6]	viability, T/C [7]	viability, T/C [8]	viability, T/C [9]	viability, T/C [10]	viability, T/C [11]	viability, T/C [12]	viability, T/C [13]	viability, T/C [14]	viability, T/C [15]	viability, T/C [16]	viability, T/C [17]	viability, T/C [18]	viability, T/C [19]	viability, T/C [20]	further results
O=C(c1cc(Cc2n[nH]c(=O)c3ccccc23)ccc1F)N1CCN(C(=O)C2CC2)CC1 + Cc1ccccc1N=Nc1ccc(NC(=O)c2ccnn2C)c(C)c1	> 10000 nM	> 10000 nM	> 10000 nM	> 10000 nM	> 10000 nM	96.5%	102%	99.3%	95.1%	90.9%	93.2%	102%	100%	97.8%	93.1%	94.2%	93.1%	97.6%	102%	103%	viability, T/C [21]: 100%; viability, T/C [22]: 101%; viability, T/C [23]: 94.6%; viability, T/C [24]: 90.2%; viability, T/C [25]: 91.7%; viability, T/C [26]: 92.2%; viability, T/C [27]: 94.3%; viability, T/C [28]: 93.3%; viability, T/C [29]: 84.2%; viability, T/C [30]: 80.9%; viability, T/C [31]: 79.3%; viability, T/C [32]: 76.9%; viability, T/C [33]: 79.7%; viability, T/C [34]: 74%; viability, T/C [35]: 63.6%
CC1COCCN1c1cc(C2(S(C)(=N)=O)CC2)nc(-c2ccnc3[nH]ccc23)n1 (configuration not stated) + Cc1cncc(-c2nc(NCCc3c[nH]c4ccccc34)c3ncn(C(C)C)c3n2)c1	6690 nM	6720 nM	6270 nM	1650 nM	< 31.6 nM	96.7%	88.9%	83.1%	98.6%	114%	25.1%	84.1%	81.6%	79.7%	98.3%	110%	28.4%	80.4%	81.8%	66.9%	viability, T/C [21]: 79.1%; viability, T/C [22]: 92%; viability, T/C [23]: 29.5%; viability, T/C [24]: 69%; viability, T/C [25]: 70.7%; viability, T/C [26]: 74.2%; viability, T/C [27]: 48.4%; viability, T/C [28]: 44.6%; viability, T/C [29]: 17.9%; viability, T/C [30]: 23.8%; viability, T/C [31]: 27.1%; viability, T/C [32]: 12.5%; viability, T/C [33]: 9.69%; viability, T/C [34]: 8.26%; viability, T/C [35]: 5.32%
CCN(c1cc(-c2ccc(CN3CCOCC3)cc2)cc(C(=O)NCc2c(C)cc(C)[nH]c2=O)c1C)C1CCOCC1	–	–	–	–	–	–	–	–	–	–	–	–	–	–	–	–	–	–	–	–	viability, T/C (compound 0.00949 µM): 105% (2×) and 109%; viability, T/C (compound 0.03 µM): 100% and 102% and 108%; viability, T/C (compound 0.0949 µM): 100% and 105% and 99.7%; viability, T/C (compound 0.3 µM): 94.2% and 98.2% and 97.3%; viability, T/C (compound 0.949 µM): 96.8% and 91.9% and 88.2%; viability, T/C (compound 3 µM): 78.1% and 92.2% and 80.9%; IC50 (curve of compound): > 3000 nM
Nc1ccn(C2OC(CO)C(O)C2(F)F)c(=O)n1 (configuration not stated) + Cc1cncc(-c2nc(NCCc3c[nH]c4ccccc34)c3ncn(C(C)C)c3n2)c1	48.3 nM	46.3 nM	42.5 nM	59.5 nM	< 31.6 nM	65.8%	22.5%	15.1%	12.1%	10.7%	7.08%	61.6%	26.9%	12.9%	12.8%	10.2%	7.37%	59.6%	22.8%	13.5%	viability, T/C [21]: 9.62%; viability, T/C [22]: 10.7%; viability, T/C [23]: 8.49%; viability, T/C [24]: 65.2%; viability, T/C [25]: 37.5%; viability, T/C [26]: 16.2%; viability, T/C [27]: 8.68%; viability, T/C [28]: 11.6%; viability, T/C [29]: 9.18%; viability, T/C [30]: 6.33%; viability, T/C [31]: 1.93%; viability, T/C [32]: 1.21%; viability, T/C [33]: 0.96%; viability, T/C [34]: 2.26%; viability, T/C [35]: 2.09%
